# Assay results reported in PMC9606955, “In Vitro Activity of Essential Oils Distilled from Colombian Plants against Candida auris and Other Candida Species with Different Antifungal Susceptibility Profiles” (Molecules, 2022).
# Experiments:
# [1] = system: C. auris; assay: Screening of antifungal activity at 256 µg/mL against C. auris; type: cell-based, Candida auris; conditions: screening at 256 µg/mL, clinical isolates of C. auris
# From the text: (§1) The fungal strains used in this study were C. albicans ATCC 10231, C. albicans ATCC 64550, C. parapsilosis ATCC 22019, C. tropicalis ATCC 750, C. tropicalis ATCC 200956 (resistant to azoles and AMB), C. glabrata LMDM 34 (resistant to echinocandins), C. metapsilosis MUM 15.12, C. orthopsilosis MUM 17.13, C. lusitaniae MUM 17.08, C. krusei ATCC 6258 (Issatchenkia orientalis ATCC 6258), and C. auris CDC B11903. Additionally, nine clinical isolates were included: C. parapsilosis Synlab 406 (FLC-resistant) and eight C. auris isolates identified by MALDI-TOF MS (Bruker Daltonics, Bremen, Germany) according to Zhao et al.. These yeasts were cultured on Sabouraud Dextrose Agar (SDA; Sigma-Aldrich, St. Louis, MO, USA) for 24 h at 35 °C.
# Antifungal susceptibility testing was performed according to Clinical and Laboratory Standards Institute M27, 4th Edition (CLSI standard M27, 4th Edition). Some modifications were applied for evaluation of the antifungal activity of EOs and terpenes. Initially, a screening was carried out to determine the antifungal activity of the EOs and of commercial terpenes. Stock concentrations of EOs and terpenes were prepared at 512 µg/mL and an inoculum of 2.5 × 10^3 CFU/mL of each yeast was prepared in RPMI 1640-MOPS (Sigma- Aldrich St. Louis, MO, USA). Thereafter, 100 µL of each stock solution of EOs or terpenes was dispensed in 96-well microdilution plates (Corning®, Costar®, NY, USA) and 100 µL of each yeast inoculum was added. […] MICs were visually determined at the lowest concentration that produced visual inhibition compared to the growth control. […] The results were expressed as geometric means (GM) and ranges. As an antifungal susceptibility testing control, the activity of ITC and AMB against the reference strains C. krusei ATCC 6258 and C. parapsilosis ATCC 22019 was evaluated in all experiments following the CLSI standard M27, 4th Edition. […]
# [2] = system: C. metapsilosis MUM 15.12; assay: MIC, CLSI M27 broth microdilution; type: cell-based, Candida metapsilosis; conditions: C. metapsilosis MUM 15.12, antifungal drugs; for MIC: Lodderomyces metapsilosis, MUM15.12, geometric mean, read-out: MIC GM
# From the text: as §1
# (§2) Antifungal susceptibility testing was performed according to Clinical and Laboratory Standards Institute M27, 4th Edition (CLSI standard M27, 4th Edition). Some modifications were applied for evaluation of the antifungal activity of EOs and terpenes. Initially, a screening was carried out to determine the antifungal activity of the EOs and of commercial terpenes. Stock concentrations of EOs and terpenes were prepared at 512 µg/mL and an inoculum of 2.5 × 10^3 CFU/mL of each yeast was prepared in RPMI 1640-MOPS (Sigma- Aldrich St. Louis, MO, USA). Thereafter, 100 µL of each stock solution of EOs or terpenes was dispensed in 96-well microdilution plates (Corning®, Costar®, NY, USA) and 100 µL of each yeast inoculum was added. […] Microdilution plates were incubated at 35 °C and, after 24 h, the presence or absence of growth was visually checked using a manual mirror viewer and then compared with the amount of growth in the control (no EO or terpene). Compounds able to inhibit yeast growth were tested to determine the minimal inhibitory concentration (MIC) as follows: 100 µL of 10 two-fold dilutions of the EOs or commercial terpenes was dispensed in 96-well microplates and the yeast inoculum was added. Final concentrations of the EOs or terpenes ranged from 0.5 µg/mL to 256 µg/mL. Microdilution plates were incubated at 35 °C for 24 h. MICs were visually determined at the lowest concentration that produced visual inhibition compared to the growth control. The assays were performed at least three times in duplicate on different days. The results were expressed as geometric means (GM) and ranges. As an antifungal susceptibility testing control, the activity of ITC and AMB against the reference strains C. krusei ATCC 6258 and C. parapsilosis ATCC 22019 was evaluated in all experiments following the CLSI standard M27, 4th Edition. It was mandatory that the MIC values remained in the accepted range.
# [3] = system: C. lusitaniae MUM 17.08; assay: MIC, CLSI M27 broth microdilution; type: cell-based, Candida lusitaniae; conditions: C. lusitaniae MUM 17.08, antifungal drugs; for MIC: Clavispora lusitaniae, MUM17.08, geometric mean, read-out: MIC GM
# From the text: as §1, §2
# [4] = system: C. albicans ATCC 10231; assay: MIC, CLSI M27 broth microdilution; type: cell-based, Candida albicans; conditions: antifungal drugs; for MIC: Candida albicans, ATCC10231, geometric mean
# From the text: as §1, §2
# [5] = system: C. albicans ATCC 64550; assay: MIC, CLSI M27 broth microdilution; type: cell-based, Candida albicans; conditions: antifungal drugs; for MIC: Candida albicans, ATCC64550, geometric mean
# From the text: as §1, §2
# [6] = system: C. krusei ATCC 6258; assay: MIC, CLSI M27 broth microdilution; type: cell-based, Candida krusei; conditions: C. krusei ATCC 6258, antifungal drugs; for MIC: Pichia kudriavzevii, ATCC6258, geometric mean, read-out: MIC GM
# From the text: as §1, §2
# [7] = system: C. parapsilosis Synlab 406; assay: MIC, CLSI M27 broth microdilution; type: cell-based, Candida parapsilosis; conditions: C. parapsilosis Synlab 406, antifungal drugs; for MIC: Lodderomyces parapsilosis, SYNLAB406, geometric mean, read-out: MIC GM
# From the text: as §1, §2
# [8] = system: C. parapsilosis ATCC 22019; assay: MIC, CLSI M27 broth microdilution; type: cell-based, Candida parapsilosis; conditions: antifungal drugs; for MIC: Lodderomyces parapsilosis, ATCC22019, geometric mean
# From the text: as §1, §2
# [9] = system: C. tropicalis ATCC 200956; assay: MIC, CLSI M27 broth microdilution; type: cell-based, Candida tropicalis; conditions: C. tropicalis ATCC 200956, antifungal drugs; for MIC: Candida tropicalis, ATCC200956, geometric mean, read-out: MIC GM
# From the text: as §1, §2
# [10] = system: C. tropicalis ATCC 750; assay: MIC, CLSI M27 broth microdilution; type: cell-based, Candida tropicalis; conditions: antifungal drugs; for MIC: Candida tropicalis, ATCC750, geometric mean
# From the text: as §1, §2
# [11] = system: C. orthopsilosis MUM 17.13; assay: MIC, CLSI M27 broth microdilution; type: cell-based, Candida orthopsilosis; conditions: C. orthopsilosis MUM 17.13, antifungal drugs; for MIC: Lodderomyces orthopsilosis, MUM17.13, geometric mean, read-out: MIC GM
# From the text: as §1, §2
# [12] = system: C. auris Ca 41; assay: MIC, CLSI M27 broth microdilution; type: cell-based, Candida auris; conditions: C. auris Ca 41, antifungal drugs; for MIC: Candidozyma auris, CA41, geometric mean, read-out: MIC GM
# From the text: as §1, §2
# [13] = system: C. auris Ca 45; assay: MIC, CLSI M27 broth microdilution; type: cell-based, Candida auris; conditions: C. auris Ca 45, antifungal drugs; for MIC: Candidozyma auris, CA45, geometric mean, read-out: MIC GM
# From the text: as §1, §2
# [14] = system: C. auris Ca 46; assay: MIC, CLSI M27 broth microdilution; type: cell-based, Candida auris; conditions: C. auris Ca 46, antifungal drugs; for MIC: Candidozyma auris, CA46, geometric mean, read-out: MIC GM
# From the text: as §1, §2
# [15] = system: C. auris Ca 9; assay: MIC, CLSI M27 broth microdilution; type: cell-based, Candida auris; conditions: C. auris Ca 9, antifungal drugs; for MIC: Candidozyma auris, CA9, geometric mean, read-out: MIC GM
# From the text: as §1, §2
# [16] = system: C. auris Ca 1; assay: MIC, CLSI M27 broth microdilution; type: cell-based, Candida auris; conditions: C. auris Ca 1, antifungal drugs; for MIC: Candidozyma auris, CA1, geometric mean, read-out: MIC GM
# From the text: as §1, §2
# [17] = system: C. auris Ca 32; assay: MIC, CLSI M27 broth microdilution; type: cell-based, Candida auris; conditions: C. auris Ca 32, antifungal drugs; for MIC: Candidozyma auris, CA32, geometric mean, read-out: MIC GM
# From the text: as §1, §2
# [18] = system: C. auris Ca 10; assay: MIC, CLSI M27 broth microdilution; type: cell-based, Candida auris; conditions: antifungal drugs; for MIC: Candidozyma auris, CA10, geometric mean
# From the text: as §1, §2
# [19] = system: C. auris Ca 17; assay: MIC, CLSI M27 broth microdilution; type: cell-based, Candida auris; conditions: C. auris Ca 17, antifungal drugs; for MIC: Candidozyma auris, CA17, geometric mean, read-out: MIC GM
# From the text: as §1, §2
# [20] = system: C. auris CDC B11903; assay: MIC, CLSI M27 broth microdilution; type: cell-based, Candida auris; conditions: C. auris CDCB11903, antifungal drugs; for MIC: Candidozyma auris, geometric mean, read-out: MIC GM
# From the text: as §1, §2
# [21] = system: C. glabrata LMDM 34; assay: MIC, CLSI M27 broth microdilution; type: cell-based, Candida glabrata; conditions: for MIC: Nakaseomyces glabratus, LMDM34, geometric mean; for MIC / MIC Range: antifungal drugs
# From the text: as §1, §2
compound,measurement,setting,value
C=C1CC/C=C(\C)CC[C@@H]2[C@@H]1CC2(C)C (relative stereo) [trans-β-caryophyllene],antifungal activity in screening against C. auris,[1],active against only some of the clinical isolates of C. auris
CC1=CC(=O)[C@@H]2C[C@H]1C2(C)C [verbenone],antifungal activity in screening against C. auris,[1],active against only some of the clinical isolates of C. auris
"CCC(C)n1ncn(-c2ccc(N3CCN(c4ccc(OCC5COC(Cn6cncn6)(c6ccc(Cl)cc6Cl)O5)cc4)CC3)cc2)c1=O (stereo not drawn) [ITC, itraconazole]",MIC Range,[2],0.06 to 0.12 µg/mL
same,MIC,[2],0.09 µg/mL
same,MIC Range,[3],0.03 to 0.06 µg/mL
same,MIC,[3],0.04 µg/mL
same,MIC,[4],0.06 µg/mL
same,MIC Range,[4],0.03 to 0.125 µg/mL
same,MIC,[5],0.7 µg/mL
same,MIC Range,[5],0.5 to 1 µg/mL
same,MIC Range,[6],0.12 to 0.50 µg/mL
same,MIC,[6],0.28 µg/mL
same,MIC Range,[7],0.5 to 1 µg/mL
same,MIC,[7],0.7 µg/mL
same,MIC,[8],0.35 µg/mL
same,MIC Range,[8],0.25 to 0.50 µg/mL
same,MIC Range,[9],>16 µg/mL
same,MIC,[9],> 16 µg/mL
same,MIC,[10],0.12 µg/mL
same,MIC Range,[10],0.06 to 0.25 µg/mL
same,MIC Range,[11],0.12 µg/mL
same,MIC,[11],0.12 µg/mL
same,MIC Range,[12],0.03 to 0.12 µg/mL
same,MIC,[12],0.06 µg/mL
same,MIC Range,[13],0.06 to 0.12 µg/mL
same,MIC,[13],0.04 µg/mL
same,MIC Range,[14],0.06 to 0.12 µg/mL
same,MIC,[14],0.04 µg/mL
same,MIC Range,[15],0.03 to 0.12 µg/mL
same,MIC,[15],0.06 µg/mL
same,MIC Range,[16],0.03 to 0.12 µg/mL
same,MIC,[16],0.06 µg/mL
same,MIC Range,[17],0.25 to 0.50 µg/mL
same,MIC,[17],0.35 µg/mL
same,MIC,[18],0.09 µg/mL
same,MIC Range,[18],0.06 to 0.12 µg/mL
same,MIC Range,[19],0.12 to 0.5 µg/mL
same,MIC,[19],0.25 µg/mL
same,MIC Range,[20],0.06 to 0.12 µg/mL
same,MIC,[20],0.04 µg/mL
same,MIC,[21],1 µg/mL
same,MIC Range,[21],1 µg/mL
"CC[C@H](C)C[C@H](C)CCCCCCCCC(=O)N[C@H]1C[C@@H](O)[C@@H](NCCN)NC(=O)[C@@H]2[C@@H](O)CCN2C(=O)[C@H]([C@H](O)CCN)NC(=O)[C@H]([C@H](O)[C@@H](O)c2ccc(O)cc2)NC(=O)[C@@H]2C[C@@H](O)CN2C(=O)[C@H]([C@@H](C)O)NC1=O [CSF, caspofungin]",MIC Range,[2],1 µg/mL
same,MIC,[2],1 µg/mL
same,MIC Range,[3],1 µg/mL
same,MIC,[3],1 µg/mL
same,MIC,[4],0.18 µg/mL
same,MIC Range,[4],0.12 to 0.25 µg/mL
same,MIC,[5],0.35 µg/mL
same,MIC Range,[5],0.25 to 0.5 µg/mL
same,MIC Range,[6],1 µg/mL
same,MIC,[6],1 µg/mL
same,MIC Range,[7],2 µg/mL
same,MIC,[7],2 µg/mL
same,MIC,[8],1 µg/mL
same,MIC Range,[8],1 µg/mL
same,MIC Range,[9],0.5 µg/mL
same,MIC,[9],0.5 µg/mL
same,MIC,[10],0.35 µg/mL
same,MIC Range,[10],0.25 to 0.5 µg/mL
same,MIC Range,[11],1 µg/mL
same,MIC,[11],1 µg/mL
same,MIC Range,[12],0.5 µg/mL
same,MIC,[12],0.5 µg/mL
same,MIC Range,[13],0.5 µg/mL
same,MIC,[13],0.5 µg/mL
same,MIC Range,[14],0.5 µg/mL
same,MIC,[14],0.5 µg/mL
same,MIC Range,[15],0.5 µg/mL
same,MIC,[15],0.5 µg/mL
same,MIC Range,[16],0.5 µg/mL
same,MIC,[16],0.5 µg/mL
same,MIC Range,[17],0.5 µg/mL
same,MIC,[17],0.5 µg/mL
same,MIC,[18],0.7 µg/mL
same,MIC Range,[18],0.5 to 1 µg/mL
same,MIC Range,[19],0.5 µg/mL
same,MIC,[19],0.5 µg/mL
same,MIC Range,[20],0.5 µg/mL
same,MIC,[20],0.5 µg/mL
same,MIC,[21],8 µg/mL
same,MIC Range,[21],8 µg/mL
same,susceptibility category,[21]; resistance confirmed,resistance
C=C(C)C1CC=C(C)C(O)C1 (mixture of isomers) [carveol],antifungal activity in screening against C. auris,[1],active against only some of the clinical isolates of C. auris
